Measured values: US20140005163A1 (NOVARTIS AG, priority 2010, published 2014)
≈ marks a conversion by molar mass, not a printed value. Like-named read-outs stand apart in the source and are kept apart here.

Assays:
[1] = target: T1, PI3K delta (Homo sapiens, UniProt O00329); assay: PI3K delta kinase assay (Kinase-Glo luminescence); format: biochemical
T1 construct: for the full-length p110-d subunit are generated and fused by overlapping PCR; p85(iSH2) fusion partner (see partner chain) (N); His tag (C); made in house; host or cells: baculovirus; Tn5 (Trichoplusia ni) or TiniPro insect cells
T1 sequence (O00329 with tags, fused parts or gaps limits assumed): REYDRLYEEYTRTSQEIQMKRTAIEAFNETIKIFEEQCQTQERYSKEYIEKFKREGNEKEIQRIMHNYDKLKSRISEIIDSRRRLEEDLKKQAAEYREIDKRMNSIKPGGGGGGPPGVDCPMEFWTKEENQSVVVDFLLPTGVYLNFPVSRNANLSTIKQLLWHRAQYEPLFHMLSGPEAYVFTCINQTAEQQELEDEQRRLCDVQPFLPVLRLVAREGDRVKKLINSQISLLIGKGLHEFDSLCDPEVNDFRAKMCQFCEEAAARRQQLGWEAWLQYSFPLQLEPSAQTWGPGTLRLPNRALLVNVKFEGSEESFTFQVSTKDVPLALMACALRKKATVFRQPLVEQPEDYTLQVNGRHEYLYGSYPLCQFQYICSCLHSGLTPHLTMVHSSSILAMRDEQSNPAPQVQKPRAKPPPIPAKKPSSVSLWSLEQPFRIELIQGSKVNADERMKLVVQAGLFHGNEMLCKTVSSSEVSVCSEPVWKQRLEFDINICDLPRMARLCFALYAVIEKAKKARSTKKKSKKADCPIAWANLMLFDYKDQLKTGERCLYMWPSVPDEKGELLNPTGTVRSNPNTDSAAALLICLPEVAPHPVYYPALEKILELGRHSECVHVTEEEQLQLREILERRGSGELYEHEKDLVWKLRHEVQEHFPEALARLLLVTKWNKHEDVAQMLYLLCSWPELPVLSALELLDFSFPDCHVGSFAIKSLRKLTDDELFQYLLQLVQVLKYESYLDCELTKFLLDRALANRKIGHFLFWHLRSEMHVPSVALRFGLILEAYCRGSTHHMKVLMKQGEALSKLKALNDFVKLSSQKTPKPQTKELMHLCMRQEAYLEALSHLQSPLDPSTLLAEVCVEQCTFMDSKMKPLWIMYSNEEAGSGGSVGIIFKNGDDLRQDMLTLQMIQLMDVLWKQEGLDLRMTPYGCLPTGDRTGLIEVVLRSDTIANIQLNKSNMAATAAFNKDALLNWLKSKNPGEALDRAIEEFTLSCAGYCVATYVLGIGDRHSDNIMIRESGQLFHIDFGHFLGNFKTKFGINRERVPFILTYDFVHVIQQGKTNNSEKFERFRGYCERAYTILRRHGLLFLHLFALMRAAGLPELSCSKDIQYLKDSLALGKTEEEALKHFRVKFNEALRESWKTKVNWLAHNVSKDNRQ
In short: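 Inhibition is derived from luminescent detection of unconsumed ATP. The reaction runs for one hour at ambient temperature and contains the δ isoform fusion protein, phosphatidylinositol substrate and low (1 μM) ATP. Eight compound concentrations are tested in single, and a 4-parameter logistic model is used to calculate IC50.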

[2] = test system: PKB Ser473 phosphorylation in Rat1-myr-HA-p110 alpha cells; assay: Reverse protein array assay, PKB Ser473 phosphorylation in Rat1-myr-p110 alpha cells; format: cell-based; conditions: 0.5 h, pAkt Ser473, 30 minutes compound incubation, read-out: p-PKB IC50
In short: (§1)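 Lysates were arrayed at four dilutions, and phospho-PKB Ser473 was quantified by relative fluorescence signal. They came from Rat1-myr-HA-p110 alpha, beta or delta cells exposed for 30 min at 37 °C to an 8-point compound series with 0.2% DMSO constant.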

[3] = test system: PKB Ser473 phosphorylation in Rat1-myr-HA-p110 beta cells; assay: Reverse protein array assay, PKB Ser473 phosphorylation in Rat1-myr-p110 beta cells; format: cell-based; conditions: 0.5 h, pAkt Ser473, 30 minutes incubation, read-out: p-PKB IC50
In short: as §1

[4] = Solubility at pH 6.8; format: physicochemical
In short: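 Solubility was measured at pH 6.8 following the cited Zhou et al. (2007) procedure.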

[5] = pH 6.8, aqueous buffer, thermodynamic from solid, read-out: solubility

Row | Compound | IC50 [1] [nM] | IC50 [2] [nM] | IC50 [3] [nM] | solubility [4, 5] [µg/mL] | solubility ([4]; pH 6.8) [µg/mL]
1 | Cc1nn(C)cc1-n1c(=O)n(C)c2cnc3ccc(-c4cccc5c4OC(F)(F)O5)cc3c21 [Example 35, 8-(2,2-Difluoro-benzo[1,3]dioxol-4-yl)-1-(1,3-dimethyl-1H-pyrazol-4-yl)-3-methyl-1,3-dihydro-imidazo[4,5-c]quinolin-2-one] | 29 | 8 | 10 | 3 (≈ 6.68 µM) | 
2 | Cc1nn(C)cc1-n1c(=O)n(C)c2cnc3ccc(-c4ccccc4)cc3c21 [Example 37.1, 1-(1,3-Dimethyl-1H-pyrazol-4-yl)-3-methyl-8-phenyl-1,3-dihydro-imidazo[4,5-c]quinolin-2-one] | 449 | 98 | 135 | 3 (≈ 8.12 µM) | 
3 | Cc1nn(C)cc1-n1c(=O)n(C)c2cnc3ccc(-c4cccc(S(C)(=O)=O)c4)cc3c21 [Example 40, 1-(1,3-Dimethyl-1H-pyrazol-4-yl)-8-(3-methanesulfonyl-phenyl)-3-methyl-1,3-dihydro-imidazo[4,5-c]quinolin-2-one] | 23 | 77 | 65 |  | 2 (≈ 4.47 µM)
4 | Cc1nn(C)cc1-n1c(=O)n(C)c2cnc3ccc(-c4ccc(C(N)=O)cc4)cc3c21 [Example 41, 4-[1-(1,3-Dimethyl-1H-pyrazol-4-yl)-3-methyl-2-oxo-2,3-dihydro-1H-imidazo[4,5-c]quinolin-8-yl]-benzamide] | 82 | 48 | 37 | 14 (≈ 33.9 µM) | 
5 | Cc1nn(C)cc1-n1c(=O)n(C)c2cnc3ccc(-c4cccc(C(N)=O)c4)cc3c21 [Example 46, 3-[1-(1,3-Dimethyl-1H-pyrazol-4-yl)-3-methyl-2-oxo-2,3-dihydro-1H-imidazo[4,5-c]quinolin-8-yl]-benzamide] | 292 | 214 | 541 | 8 (≈ 19.4 µM) | 
6 | Cc1nn(C)cc1-n1c(=O)n(C)c2cnc3ccc(-c4ccc5c(c4)CC(=O)N5)cc3c21 [Example 49, 1-(1,3-Dimethyl-1H-pyrazol-4-yl)-3-methyl-8-(2-oxo-2,3-dihydro-1H-indol-5-yl)-1,3-dihydro-imidazo[4,5-c]quinolin-2-one] | 106 | 51 | 152 | 33 (≈ 77.7 µM) | 
7 | Cc1nn(C)cc1-n1c(=O)n(C)c2cnc3ccc(-c4cccc(S(=O)(=O)N(C)C)c4)cc3c21 [Example 53.1, 3-[1-(1,3-Dimethyl-1H-pyrazol-4-yl)-3-methyl-2-oxo-2,3-dihydro-1H-imidazo[4,5-c]quinolin-8-yl]-N,N-dimethyl-benzenesulfonamide] | 12 | 15 | 43 | 3 (≈ 6.3 µM) | 
8 | COCc1cncc(-c2ccc3ncc4c(c3c2)n(-c2cn(C)nc2C)c(=O)n4C)c1 [Example 54.1, 1-(1,3-Dimethyl-1H-pyrazol-4-yl)-8-(5-methoxymethyl-pyridin-3-yl)-3-methyl-1,3-dihydro-imidazo[4,5-c]quinolin-2-one] | 19 | 95 | 92 | 164 (≈ 396 µM) | 
9 | CCOc1cncc(-c2ccc3ncc4c(c3c2)n(-c2cn(C)nc2Cl)c(=O)n4C)c1 [Example 56.4, 1-(3-Chloro-1-methyl-1H-pyrazol-4-yl)-8-(5-ethoxy-pyridin-3-yl)-3-methyl-1,3-dihydro-imidazo[4,5-c]quinolin-2-one] | 6 | 9 | 11 | 14 (≈ 32.2 µM) | 
10 | Cc1nn(C)cc1-n1c(=O)n(C)c2cnc3ccc(-c4cncc(OC(C)C)c4)cc3c21 [Example 58.1, 1-(1,3-Dimethyl-1H-pyrazol-4-yl)-8-(5-isopropoxy-pyridin-3-yl)-3-methyl-1,3-dihydro-imidazo[4,5-c]quinolin-2-one] | 8 | 21 | 30 | > 428 | 
11 | CCN(C)C(=O)Cn1cc(-n2c(=O)n(C)c3cnc4ccc(-c5cncc(OC(C)C)c5)cc4c32)c(C)n1 [Example 58.5, N-Ethyl-2-{4-[8-(5-isopropoxy-pyridin-3-yl)-3-methyl-2-oxo-2,3-dihydro-imidazo[4,5-c]quinolin-1-yl]-3-methyl-pyrazol-1-yl}-N-methyl-acetamide] | 39 | 53 | 102 | 466 (≈ 907 µM) | 
12 | COc1ncc(-c2ccc3ncc4c(c3c2)n(-c2cn(C)nc2C)c(=O)n4C)cc1NC(C)=O [Example 64, N-{5-[1-(1,3-Dimethyl-1H-pyrazol-4-yl)-3-methyl-2-oxo-2,3-dihydro-1H-imidazo[4,5-c]quinolin-8-yl]-2-methoxy-pyridin-3-yl}-acetamide] | 51 | 12 | 24 | 3 (≈ 6.56 µM) | 
13 | COc1ncc(-c2ccc3ncc4c(c3c2)n(-c2cn(C)nc2C)c(=O)n4C)cc1[N+](=O)[O-] [Example 66, 1-(1,3-dimethyl-1H-pyrazol-4-yl)-8-(6-methoxy-5-nitro-pyridin-3-yl)-3-methyl-1,3-dihydro-imidazo[4,5-c]quinolin-2-one] | 19 | 96 | 86 |  | 2 (≈ 4.49 µM)
14 | Cc1nn(C)cc1-n1c(=O)n(C)c2cnc3ccc(-c4cnc5c(c4)nnn5C)cc3c21 [Example 72, 1-(1,3-Dimethyl-1H-pyrazol-4-yl)-3-methyl-8-(3-methyl-3H-[1,2,3]triazolo[4,5-b]pyridin-6-yl)-1,3-dihydro-imidazo[4,5-c]quinolin-2-one] | 29 | 166 | 299 | 37 (≈ 87 µM) | 
15 | Cc1nn(C)cc1-n1c(=O)n(C)c2cnc3ccc(-c4cnc5c(c4)ncn5C)cc3c21 [Example 74, 1-(1,3-Dimethyl-1H-pyrazol-4-yl)-3-methyl-8-(3-methyl-3H-imidazo[4,5-b]pyridin-6-yl)-1,3-dihydro-imidazo[4,5-c]quinolin-2-one] | 43 | 20 | 56 | 8 (≈ 18.8 µM) | 
16 | Cc1nn(C)cc1-n1c(=O)n(C)c2cnc3ccc(-c4ccc(-n5cccn5)nc4)cc3c21 [Example 79, 1-(1,3-Dimethyl-1H-pyrazol-4-yl)-3-methyl-8-(6-pyrazol-1-yl-pyridin-3-yl)-1,3-dihydro-imidazo[4,5-c]quinolin-2-one] | 318 | 1 | 7 |  | 2 (≈ 4.58 µM)
17 | Cc1ncc(-c2ccc3ncc4c(c3c2)n(-c2cn(C)nc2C)c(=O)n4C)cc1OC(C)C [Example 84.1, 1-(1,3-Dimethyl-1H-pyrazol-4-yl)-8-(5-isopropoxy-6-methyl-pyridin-3-yl)-3-methyl-1,3-dihydro-imidazo[4,5-c]quinolin-2-one] | 4 | < 5 | 8 | 219 (≈ 495 µM) | 
18 | CCNc1cc(-c2ccc3ncc4c(c3c2)n(-c2c(C)nn(CC(=O)N(C)C)c2C)c(=O)n4C)cnc1C [Example 87.5, 2-{4-[8-(5-Ethylamino-6-methyl-pyridin-3-yl)-3-methyl-2-oxo-2,3-dihydro-imidazo[4,5-c]quinolin-1-yl]-3,5-dimethyl-pyrazol-1-yl}-N,N-dimethyl-acetamide] | 35 | 237 | 407 | > 513 | 
19 | CCNc1cc(-c2ccc3ncc4c(c3c2)n(-c2c(C)nn(CCOC)c2C)c(=O)n4C)cnc1OC [Example 90.2, 8-(5-Ethylamino-6-methoxy-pyridin-3-yl)-1-[1-(2-methoxy-ethyl)-3,5-dimethyl-1H-pyrazol-4-yl]-3-methyl-1,3-dihydro-imidazo[4,5-c]quinolin-2-one] | 26 | 17 | 10 | > 502 | 
20 | Cc1nn(C)cc1-n1c(=O)n(C)c2cnc3ccc(-c4cnc5cc[nH]c5c4)cc3c21 [Example 99, 1-(1,3-Dimethyl-1H-pyrazol-4-yl)-3-methyl-8-(1H-pyrrolo[3,2-b]pyridin-6-yl)-1,3-dihydro-imidazo[4,5-c]quinolin-2-one] | 6 | 13 | 16 |  | 2 (≈ 4.88 µM)
21 | Cc1nn(C)cc1-n1c(=O)n(C)c2cnc3ccc(-c4ccc(OCCO)nc4)cc3c21 [Example 107, 1-(1,3-Dimethyl-1H-pyrazol-4-yl)-8-[6-(2-hydroxy-ethoxy)-pyridin-3-yl]-3-methyl-1,3-dihydro-imidazo[4,5-c]quinolin-2-one] | 28 | 85 | 101 | 49 (≈ 114 µM) | 
22 | CCOc1ccc(-c2ccc3ncc4[nH]c(=O)n(-c5cn(C)nc5C)c4c3c2)cn1 [Example 110, 1-(1,3-Dimethyl-1H-pyrazol-4-yl)-8-(6-ethoxy-pyridin-3-yl)-1,3-dihydro-imidazo[4,5-c]quinolin-2-one] | 42 | 67 | 113 |  | 2 (≈ 4.99 µM)
23 | CNc1ccc(-c2ccc3ncc4c(c3c2)n(-c2cn(C)nc2C)c(=O)n4C)cn1 [Example 118.2, 1-(1,3-Dimethyl-1H-pyrazol-4-yl)-3-methyl-8-(6-methylamino-pyridin-3-yl)-1,3-dihydro-imidazo[4,5-c]quinolin-2-one] | 13 | < 5 | < 5 | 30 (≈ 75.1 µM) | 
